Test results published in patent US10329262B2, “Quinazolinone antibiotics” (priority 2013, dated 2019).
Converted amounts (≈) assume the structure as drawn. Where two headings read alike, the source gives them in different places. One block for each compound: values may come before it.

Tests used:
[1] = tested on: S. aureus ATCC 29213 (MSSA); test: MIC, CLSI broth microdilution, S. aureus ATCC 29213; format: cell-based, Staphylococcus aureus; conditions: for MIC (w/ BSA): S. aureus ATCC 29213, in the presence of bovine serum albumin; for MIC: S. aureus strain ATCC 29213 (MSSA); for In vitro AB activity (MIC): Table 2.1, S. aureus ATCC 29213
Experimental: (§1) MICs were evaluated following the CLSI microdilution method in BBL™ Mueller-Hinton II broth (Wikler et al., Clinical Laboratory Standards Institute Document M7-A7, 29 (2009)). Briefly, two-fold serial dilutions of compound were prepared in triplicate in 96-well plates and inoculated with 5×10^5 cfu/mL of the bacterial suspension. Plates were incubated at 37° C. for 16-20 hours.

[2] = tested on: MRSA ATCC 27660; test: Mouse peritonitis model of MRSA infection; format: in vivo, mice; conditions: n = 6, 48 h
Experimental: We evaluated several compounds in in vivo mouse infection models, as well as in pharmacokinetic (PK) studies in mice (Table 1). The in vivo efficacy was determined using the rapid mouse peritonitis model of infection, in which the end point is death or survival in 48 hours. We initially dosed the compounds intravenously (iv) at a single dose level. If the compound has good in vivo efficacy after iv administration, we then evaluated efficacy at five dose levels. We also investigated in vivo efficacy after oral (po) administration.
Groups (n=6/group) of mice were infected with MRSA (0.5 mL of ATCC 27660 at a final concentration of 5×10^7 CFU/mL in 5% porcine mucin) intraperitoneally (ip). Following infection, mice were given iv doses by tail vein injection of compound 2, vancomycin (5 mg/kg, positive control), or vehicle at 30 min and 4.5 h after infection. The number of surviving mice was monitored for 48 h. The negative control (vehicle) typically results in the death of all mice. Quinazolinone 2 was dissolved in saline, sterile-filtered, and administered at doses of 2.5, 5, 7.5, 10, 20, and 30 mg/kg. The ED50 value was calculated using GraphPad prism 5.

[3] = Pharmacokinetics in mice; conditions: Table 1, ICR female mice, single dose iv
Experimental: We conducted first fast PK studies (n=2 mice per time point, 5 time points) dosing the compounds iv, followed by full PK studies for selected compounds (n=3 mice per time point, 10-12 time points per route of administration, iv and po).
A single dose of compound 2 was administered to mice (n=3 per time point) by tail vein injection or by oral gavage at 10 mg/kg. Blood was collected by cardiac puncture in heparinized syringes at 2, 5, 20, and 40 min and at 1, 2, 3, 4, 8, 18, and 24 h after iv dosing and at 0.5, 1, 2, 3, 4, 6, 9, 24, and 30 h after po dosing. Blood was centrifuged to obtain plasma. A 50-μL aliquot of plasma was mixed with 100 μL of acetonitrile containing internal standard (5 μM final concentration), followed by centrifugation at 20,000 g for 15 min. The supernatant was analyzed by reverse-phase UPLC. PK parameters were calculated as described in the Plasma protein binding and Pharmacokinetics sections below (see also Gooyit et al. J. Med. Chem. 54, 6676-6690 (2011)).
The area under the concentration-time curve up to the last quantifiable sampling time (AUC0-last) was calculated by the trapezoidal rule. AUC0-∞ was calculated as AUC0-last+(Clast/k), where Clast is the concentration at the last quantifiable sampling time and k is the elimination rate constant. The concentration at time=0 (C0) was estimated from the first sampling times by back-extrapolation using log-linear regression analysis. Half-lives (t1/2α and t1/2β) were estimated from the linear portion of the initial or terminal concentration-time data by linear regression, where the slope of the line was the rate constant k and t1/2α=ln 2/k. Volume of distribution (Vd) was calculated as the dose divided by the initial concentration (C0). Clearance (CL) was calculated from the dose divided by AUC0-∞. Oral bioavailability (F) was calculated by dividing the AUCpo by the AUCiv, as equivalent iv and po doses were administered.

[4] = tested on: S. aureus NRS100; test: MIC, CLSI broth microdilution, S. aureus NRS100; format: cell-based, Staphylococcus aureus; conditions: for MIC: Table 2, S. aureus NRS100; for In vitro AB activity (MIC): Table 2.1, S. aureus NRS100
Experimental: as §1

[5] = tested on: S. aureus NRS119; test: MIC, CLSI broth microdilution, S. aureus NRS119; format: cell-based, Staphylococcus aureus; conditions: for MIC: Table 2, S. aureus NRS119; for In vitro AB activity (MIC): Table 2.1, S. aureus NRS119
Experimental: as §1

[6] = tested on: S. aureus NRS120; test: MIC, CLSI broth microdilution, S. aureus NRS120; format: cell-based, Staphylococcus aureus; conditions: for MIC: Table 2, S. aureus NRS120; for In vitro AB activity (MIC): Table 2.1, S. aureus NRS120
Experimental: as §1

[7] = tested on: S. aureus VRS1; test: MIC, CLSI broth microdilution, S. aureus VRS1; format: cell-based, Staphylococcus aureus; conditions: for MIC: Table 2, S. aureus VRS1; for In vitro AB activity (MIC): Table 2.1, S. aureus VRS1
Experimental: as §1

[8] = tested on: S. aureus VRS2; test: MIC, CLSI broth microdilution, S. aureus VRS2; format: cell-based, Staphylococcus aureus; conditions: for MIC: Table 2, S. aureus VRS2; for In vitro AB activity (MIC): Table 2.1, S. aureus VRS2
Experimental: as §1

[9] = tested on: S. epidermidis ATCC 35547; test: MIC, CLSI broth microdilution, S. epidermidis ATCC 35547; format: cell-based; conditions: for MIC: Table 2, S. epidermidis ATCC 35547
Experimental: as §1

[10] = tested on: S. haemolyticus ATCC 29970; test: MIC, CLSI broth microdilution, S. haemolyticus ATCC 29970; format: cell-based; conditions: for MIC: Table 2, S. haemolyticus ATCC 29970; for In vitro AB activity (MIC): Table 2.1, S. haemolyticus ATCC 29970
Experimental: as §1

[11] = tested on: S. aureus NRS70; test: MIC, broth microdilution, S. aureus NRS70; format: cell-based, Staphylococcus aureus; conditions: for MIC: Staphylococcus aureus; for In vitro AB activity (MIC): Table 2.1, S. aureus NRS70
Experimental: as §1

[12] = tested on: S. aureus NRS123; test: MIC, broth microdilution, S. aureus NRS123; format: cell-based; conditions: Staphylococcus aureus
Experimental: as §1

[13] = tested on: S. aureus NRS128; test: MIC, CLSI broth microdilution, S. aureus NRS128; format: cell-based, Staphylococcus aureus; conditions: Table 2.1, S. aureus NRS128
Experimental: as §1

[14] = 5 mg/kg iv at 30 min and 4.5 hr after infection
[15] = 10 mg/kg iv at 30 min and 4.5 hr after infection
[16] = NRS70, Table 3, single agent, read-out: MIC NRS70
[17] = NRS123, Table 3, single agent, read-out: MIC NRS123
[18] = Table 2, S. aureus NRS70, read-out: MIC
[19] = Table 2, S. aureus NRS123, read-out: MIC
[20] = Staphylococcus aureus, read-out: MIC
[21] = Staphylococcus haemolyticus, ATCC29970, read-out: MIC

Structure (SMILES): Cc1nc2ccccc2c(=O)o1 [Compound 3]
MIC (w/ BSA) [1]: 4 µg/mL | MIC [1]: 0.25 µg/mL (≈ 1.55 µM) | In Vivo Efficacy (survived/total mice) [2, 14]: 1/6 @ 5 mg/kg | AUC (iv) [3]: AUC = 466 μg.min/mL | CL [3]: CL = 10.7 mL/min/kg | Vd [3]: Vd = 8.9 mL

Structure (SMILES): CC(=O)Nc1cccc(-n2c(/C=C/c3ccc(F)cc3)nc3ccccc3c2=O)c1 [Compound 5]
MIC (w/ BSA) [1]: 8 µg/mL | MIC [1]: 1 µg/mL (≈ 2.5 µM) | In Vivo Efficacy (survived/total mice) [2, 15]: 2/6 @ 10 mg/kg | AUC (iv) [3]: AUC = 284 μg.min/mL | CL [3]: CL = 88.2 mL/min/kg | Vd [3]: Vd = 55.0 mL

Structure (SMILES): CS(=O)(=O)Nc1cccc(-n2c(/C=C/c3ccc(F)cc3)nc3ccccc3c2=O)c1 [Compound 6]
MIC (w/ BSA) [1]: 1 µg/mL | MIC [1]: 0.125 µg/mL (≈ 0.287 µM) | In Vivo Efficacy (survived/total mice) [2, 15]: 0/6 @ 10 mg/kg | AUC (iv) [3]: AUC = 819 μg.min/mL | CL [3]: CL = 28.0 mL/min/kg | Vd [3]: Vd = 91.8 mL

Structure (SMILES): CC(=O)Nc1cccc(-n2c(/C=C/c3ccc(C#N)cc3)nc3ccccc3c2=O)c1 [Compound 8]
MIC (w/ BSA) [1]: 2 µg/mL | MIC [1]: 0.25 µg/mL (≈ 0.615 µM) | MIC [4]: 1 µg/mL (≈ 2.46 µM) | MIC [5]: 0.25 µg/mL (≈ 0.615 µM) | MIC [6]: 0.25 µg/mL (≈ 0.615 µM) | MIC [7]: 4 µg/mL (≈ 9.84 µM) | MIC [8]: 0.125 µg/mL (≈ 0.308 µM) | MIC [9]: 0.06 µg/mL (≈ 0.148 µM) | MIC [10]: 0.25 µg/mL (≈ 0.615 µM) | In Vivo Efficacy (survived/total mice) [2, 14]: 1/6 @ 5 mg/kg | AUC (iv) [3]: AUC = 1187 μg.min/mL | CL [3]: CL = 131 mL/min/kg | Vd [3]: Vd = 107 mL

MIC [11, 16]: 64 µg/mL (≈ 133 µM) | MIC [12, 17]: 32 µg/mL (≈ 66.6 µM)
Structure (SMILES): CO/N=C(\C(=O)N[C@@H]1C(=O)N2C(C(=O)[O-])=C(C[N+]3(C)CCCC3)CS[C@H]12)c1csc(N)n1 [cefepime]

In vitro AB activity (MIC) [1]: 4 µg/mL | In vitro AB activity (MIC) [13]: 1 µg/mL | MIC [11, 18]: 1 µg/mL (≈ 2.96 µM) | In vitro AB activity (MIC) [11]: 1 µg/mL | MIC [12, 19]: 2 µg/mL (≈ 5.93 µM) | MIC [4, 20]: 2 µg/mL (≈ 5.93 µM) | In vitro AB activity (MIC) [4]: 2 µg/mL | MIC [5, 20]: 64 µg/mL (≈ 190 µM) | In vitro AB activity (MIC) [5]: 32 µg/mL | MIC [6, 20]: 64 µg/mL (≈ 190 µM) | In vitro AB activity (MIC) [6]: 32 µg/mL | MIC [7, 20]: 2 µg/mL (≈ 5.93 µM) | In vitro AB activity (MIC) [7]: 2 µg/mL | MIC [8, 20]: 1 µg/mL (≈ 2.96 µM) | In vitro AB activity (MIC) [8]: 2 µg/mL | MIC ([9]; Staphylococcus epidermidis, ATCC35547, read-out: MIC): 1 µg/mL (≈ 2.96 µM) | In vitro AB activity (MIC) ([9]; Table 2.1, S. epidermidis ATCC 35547): 1 µg/mL
Structure (SMILES): CC(=O)NC[C@H]1CN(c2ccc(N3CCOCC3)c(F)c2)C(=O)O1 [linezolid]
MIC [10, 21]: 1 µg/mL (≈ 2.96 µM) | In vitro AB activity (MIC) [10]: 2 µg/mL

Structure (SMILES): Cc1onc(-c2ccccc2)c1C(=O)N[C@@H]1C(=O)N2[C@@H]1SC(C)(C)[C@@H]2C(=O)O [oxacillin]
In vitro AB activity (MIC) [1]: 0.25 µg/mL | In vitro AB activity (MIC) [13]: 0.5 µg/mL | MIC [11, 16]: 64 µg/mL (≈ 159 µM) | MIC [11, 18]: 32 µg/mL (≈ 79.7 µM) | In vitro AB activity (MIC) [11]: 32 µg/mL | MIC [12, 17]: 32 µg/mL (≈ 79.7 µM) | MIC [12, 19]: 32 µg/mL (≈ 79.7 µM) | MIC [4, 20]: 512 µg/mL (≈ 1280 µM) | In vitro AB activity (MIC) [4]: 512 µg/mL | MIC [5, 20]: 512 µg/mL (≈ 1280 µM) | In vitro AB activity (MIC) [5]: 512 µg/mL | MIC [6, 20]: 512 µg/mL (≈ 1280 µM) | In vitro AB activity (MIC) [6]: 512 µg/mL | MIC [7, 20]: 512 µg/mL (≈ 1280 µM) | In vitro AB activity (MIC) [7]: 512 µg/mL | MIC [8, 20]: 256 µg/mL (≈ 638 µM) | In vitro AB activity (MIC) [8]: 256 µg/mL | MIC [10, 21]: 0.25 µg/mL (≈ 0.623 µM) | In vitro AB activity (MIC) [10]: 0.25 µg/mL
